Measured values taken from patent US10793526B2, “Hydantoin derivative compounds, methods of use and methods of treatment” (University of South Florida, priority 2016, dated 2020).

What was measured:
[1] = tested on: methicillin-resistant S. epidermidis (MRSE, RP62A); assay: Minimum inhibitory concentration (MIC) assay, MRSE; format: cell-based, Staphylococcus epidermidis; details: Staphylococcus epidermidis, MRSE, Gram positive, 16 h incubation, read-out: MIC (μg/mL) MRSE
Protocol: (§1) Minimum inhibitory concentrations (MICs) assay.^2
(§2) All compounds were tested against six different bacteria strains: methicillin-resistant S. aureus (MRSA, ATCC 33591), E. coli (ATCC 25922), methicillin-resistant S. epidermidis (MRSE, RP62A), K. pneumoniae (ATCC 13383), vancomycin-resistant Enterococcus faecalis (VREF, ATCC 700802), P. aeruginosa (ATCC 27853). One colony of each bacteria was inoculated in 4 mL TSB buffer at 37° C. overnight, which was then diluted 100 times, and the bacteria were allowed to grow to the mid-logarithmic phase. 50 μL hydantoin compounds in 2-fold serial dilution of TSB were added in the 96-well plate, then 50 μL diluted bacterial in TSB medium (1×10^6 CFU/mL) was added to each well. After 16 h of incubation at 37° C., the absorption at 600 nm wavelength on a Biotek Synergy HT microtiter plate reader was recorded. Minimum inhibitory concentrations were determined as the lowest concentrations that inhibited bacteria growth completely.

[2] = tested on: P. aeruginosa (ATCC 27853); assay: Minimum inhibitory concentration (MIC) assay, P. aeruginosa; format: cell-based, Pseudomonas aeruginosa
Protocol: as §1, §2

[3] = tested on: E. coli; assay: Fluorescence microscopy (DAPI/PI) membrane damage, E. coli; format: cell-based, Escherichia coli; details: 5 μg/mL, 2 h
Protocol: Fluorescence microscopy.^2
Both propidium iodide (PI) and 4′, 6′-diamidino-2-phenylindole dihydrochloride (DAPI) fluorescent dyes were used in the studies to determine the ability of the compound 22 to compromise the membranes of MRSA and E. coli, respectively. […] After centrifugation for 15 min at 5000 rpm, cell pellets were washed with 1×PBS buffer, and incubated with PI (5 μg/mL) for 15 min on ice in the dark, then washed 2 times with PBS. Then the cell pellets were incubated with DAPI (10 μg/mL) in the similar way. The pellets were then diluted in 100 μL PBS, and 10-20 μL of the suspension was applied on chamber slides and observed under Zeiss Axio Image Zloptical microscope using 100× oil-immersion objective.

[4] = tested on: E. coli; assay: Time kill assay, E. coli; format: cell-based, Escherichia coli
Protocol: Bacteria MRSA (Gram-positive) and E. coli (Gram-negative) suspensions were allowed to grow at 37° C. to the mid-logarithmic phase, and diluted to 1×10^6 CFU/mL, […], 30 min, 1 h and 2 h, respectively. The resulted mixture was then diluted by 10^2 to 10^4 fold, from which 100 μL was spread on the TSB agar plate. The Number of bacteria colonies was counted after 20 h of incubation at 37° C.

[5] = tested on: MRSA; assay: Fluorescence microscopy (DAPI/PI) membrane damage, MRSA; format: cell-based, Staphylococcus aureus; details: 5 μg/mL, 2 h

CCCCCCCCCCCC(=O)N[C@@H](CCCCN)CN1CC(=O)N(c2cccc(Cl)c2)C1=O [Compound 22, (S)—N-(6-amino-1-(3-(3-chlorophenyl)-2,4-dioxoimidazolidin-1-yl)hexan-2-yl)dodecanamide]
MIC [1]: 0.5 µg/mL | MIC ([2]; Pseudomonas aeruginosa, ATCC27853, Gram negative, ATCC 27853, 16 h incubation, read-out: MIC (μg/mL) P.A.): 1 µg/mL | effectiveness toward P. aeruginosa compared with nitrofurantoin ([2]; ratio of MICs): at least 50 fold | membrane damage of E. coli (DAPI/PI staining) [3]: membranes of both MRSA and E. coli were damaged | time to completely eradicate E. coli ([4]; 4.0 μg/mL (4×MIC)): 60 min | time to eradicate all E. coli ([4]; 25 μg/mL): 30 min | time to eradicate all E. coli ([4]; 50 μg/mL): 30 min | membrane damage of MRSA (DAPI/PI staining) [5]: membranes of both MRSA and E. coli were damaged
